Laboratory results: patent US8334316B2, “Substituted organosulfur compounds and methods of using thereof” (ACEA Biosciences, Inc., priority 2004, dated 2012)
“And” between values parts separate entries of the source, which are not always exact repeats. Identical values can stand only once. Marks after values point to notes of the source that are not given here.

Columns and labels:
[1] = tested on: purified bovine brain tubulin; experiment: In vitro microtubule dynamics (dynamic instability) assay, video microscopy; assay type: biochemical
Method: Tubulin Purification and Microtubule Dynamics Assays. Tubulin was purified, as described in the literature (“Kinetic stabilization of microtubule dynamic instability in vitro by vinblastine”, Toso, R. J., Jordan, […]., Matsumoto, B. and Wilson, L., Biochemistry, 1993, 32, 1285-1293). Briefly, microtubule-associated protein-rich bovine brain microtubule protein was prepared by three cycles of assembly and disassembly. Tubulin was purified from other microtubule proteins by elution through a Whatman P-11 phosphocellulose column equilibrated in PEM50 (50 mM Pipes, 1 mM MgSO4, 1 mM EGTA, 0.1 mM GTP). Purified tubulin (>99% pure) was drop-frozen in liquid nitrogen and stored at -70° C. […] The dynamics of individual microtubules were recorded at 37° C. using differential interference contrast enhanced video microscopy. The ends were designated as plus or minus on the basis of the growth rate, the number of microtubules that grew at opposite ends of the seeds, and the relative lengths of the microtubules (Panda, D., Goode, […]. and Wilson, L., Kinetic stabilization of microtubule dynamics at steady state by tau and microtubule-binding domains of tau, Biochemistry, 1995, 34, 11117-11127; Walker, R. A., O'Brien, […]., Voter, W. A., Erickson, H. P. and Salmon, E. D., Dynamic instability of individual microtubules analyzed by video light microscopy: rate constants and transition frequencies, J. Cell Biol. 1988, 107, 1437-1448). Plus ends were analyzed for 10 minutes per slide during the steady-state phase of polymerization ( 45 min after initiation of polymerization). Life histories of individual microtubules were collected as described by Panda et al. 1995 (Panda, D., Goode, […]. and Wilson, L., Kinetic stabilization of microtubule dynamics at steady state by tau and microtubule-binding domains of tau, Biochemistry, 1995, 34 11117-11127) with modifications. Data points were collected at 1-3 s intervals. […] Average rates, lengths and durations are the averages of independent events. The catastrophe frequency was calculated by dividing the number of shortening events by the total time of growth and attenuation tracked, and rescue frequency was calculated by dividing the number of rescue events by the total time of shortening tracked. To control for experimental error, each condition was filmed over multiple days using at least two distinct tubulin/GTP mixtures (2-3 slides each). No gross variation in microtubule dynamics was observed between mixtures or slides of a given condition. The concentration of drug used in dynamic instability assays was chosen by initially observing microtubules stabilized with half the concentration used in microtubule assembly assays.

[2] = tested on: microtubules in COS cells; experiment: Microtubule network in cultured COS cells (anti-tubulin immunofluorescence, confocal microscopy); assay type: cell-based
Method: Cell Culture and Immunocytochemistry. COS cells were grown in DMEM media supplemented with non-essential amino acids, 10% FBS, antibiotic-antimycotic (Gibco BRL) at 37° C. and 5.5% CO2. […] Cells were then rinsed once with warm PBS, fixed with cold methanol, rinsed again in PBS and blocked overnight at 4° C. in PBT (PBS, 1% BSA, 0.5% Triton X-100). All subsequent stains and washes were done in PBT at room temperature unless stated otherwise. Cells were stained with the anti-tubulin mouse antibody DM-1 at 1:1000 for 1 hour, washed four times for 15 minutes each and then treated with Cy-3 conjugated goat anti mouse antibody at 1:100 for 1 hour in the dark. Next, samples were washed four times for 15 minutes each in PBT in the dark followed by a final 15 minute wash in PBS in the dark. Samples were then viewed by laser scanning confocal microscopy.

mouse Lewis lung cancer = experiment: In vivo antitumor efficacy, mouse Lewis lung cancer model, Example 3 (ACEA100108); conditions: for Inhibition rate (%): vs solvent control
Method: For human tumor xenograft models, cancer cells were passed twice in vivo before being transplanted into the nude mice for the study. Cultured human cancer cells in flask were first xenograft-transplanted in immunodeficient nude mice. After the cancer cells grew to a tumor of certain sizes in the nude mice, the tumor was removed form the nude mice and tumor tissues were dissected. The cell suspensions were prepared from the dissected tumor tissue and transplanted back to immunodeficient nude mice again (i.e. the second passage of cancer cells in human cancer xenograft-transplanted model). After the cancer cells grew to certain size, the tumor was removed from nude mice and the tumor tissues were dissected. The cell suspensions were prepared from dissected tissues and were used for the study of human cancer xenograft models described here.
Both male and female mice were used. However, for each experiment, animals of same sex were used. For the mouse transplanted tumor model, the numbers of animals tested were as follows: 10 for each dose group, 10 for positive control group and 20 for negative control group. For human tumor xenograft model, the numbers of animals tested were as follows: 6 for each dose group, 6 for positive control group and 12 for negative control group.
Test control. For negative control, each mouse was administered intravenously with the solvent only having the same volume and same concentration as those used in high dose ACEA100108 test, once a day, for 7 consecutive days. […] In a reference group, DBTS was administered intravenously at 50 mg/kg, once a day for 7 consecutive days.
Preparation and Administration of Test Compounds. […] Each time before use, this solution was diluted in normal saline to achieve desired ACEA100108 concentrations. Each mouse (about 20 g in weight) was administered intravenously with the compound solution of 0.5 mL at a controlled injection speed of 0.5 ml/0.5 min. 24 hrs after the tumor transplantation, intravenous injections of compound solutions into carrier mice were performed once a day, for consecutive 7 or 10 days.
Preparation of Tumor Cells for Transplantation and Determination of Compound Efficacy. To prepare the cancer cells for mouse Lewis lung cancer model, human breast cancer xenograft model and human colon cancer xenograft model, the fast growing tumors were first removed from the transplanted tumor mice. The tumor tissues were dissected and tumor cell suspensions were prepared in normal saline to have a concentration of 2-4×10^7 cells/ml. 0.2 ml of cell suspension was subcutaneously injected into the axillary region (right-side) of each mouse. […] Between two and four weeks after transplantation, mice were sacrificed and the transplanted tumors were removed from experimental mice.

[3] = tested on: purified bovine brain tubulin; experiment: In vitro microtubule assembly assay with pure (MAP-free) tubulin, light scattering OD400; assay type: biochemical
Method: Microtubule Assembly Assays. Microtubule seeds were synthesized by incubating purified bovine brain tubulin with 1 mM GTP, 10% glycerol and 10% DMSO at 35° C. for 30 minutes, followed by shearing by passing the assembled microtubules 6 times through a 27 gauge needle. Microtubule assembly was assayed by adding 27.5 ul of microtubule seeds to spectrophotometer cuvettes (maintained at 35° C.) containing 247.5 ul purified bovine brain tubulin in a PEM-100 buffer (100 mM Pipes pH=6.8, 1 mM […], 1 mM MgSO4) supplemented with 1 mM GTP (and drug where applicable) and monitoring the OD400 for 2 hours. Since the compounds are dissolved in DMSO and DMSO can have a significant effect on microtubule assembly, DMSO was added to all cuvettes so as to equal the largest volume of drug added to reactions. It should be noted that the initial velocity of the microtubule assembly reactions is so fast that one can not always catch the initial rise on the light scattering profile because it is occurring while samples are being prepared. However, all samples start at the same optical density, since they are identical with the exception of the drug being introduced.

[4] = tested on: Bcap-37 human breast cancer; experiment: Bcap-37 human breast cancer xenograft in nude mice, dosing from 24 h after transplantation (Example 3); assay type: in vivo; conditions: for tumor inhibition rate %: vs solvent control
Source text: Both male and female mice were used. […] Test control. […] Preparation and Administration of Test Compounds. […] For human tumor xenograft model, all used materials, including animal food, animal cage, supporting materials and apparatus contacted by animals, were high-pressure sterilized. Nude mice were maintained in laminar flow shelves under SPF condition. After tumor transplantation, mouse weight and tumor size in each compound dosage group were dynamically monitored and plotted.

[5] = shortening events, ACEA100108 .2uM
[6] = 8 mg/kg iv x7 qd, 7 days after transplantation
[7] = 20 mg/kg iv x7 qd, 7 days after transplantation
[8] = 50 mg/kg iv x7 qd, 7 days after transplantation

In the case of `Fc1ccc(CSSSCc2ccc(F)cc2)cc1` [ACEA100108, Di(p-fluorobenzyl)trisulfide], the “% time spent in attenuation phase” value ([1]; ACEA100108 .2uM) is reported as 69%, the “% time spent in growth phase” value ([1]; ACEA100108 .2uM) is reported as 30% and the “% time spent in shortening phase” value ([1]; ACEA100108 .2uM) is reported as 1%. The Dynamicity ([1]; ACEA100108 .2uM) was 0.83 um/min, the “Frequency of transitions ± SD: Catastrophes” value ([1]; ACEA100108 .2uM) was 0.09 ± 0.03 events/min and the “Frequency of transitions ± SD: Rescues” value ([1]; ACEA100108 .2uM) was 9.4 ± 3.0 events/min. For the same compound, the “Frequency of transitions ± SD: Total” value ([1]; ACEA100108 .2uM) was 0.32 ± 0.06 events/min, the “Growth Rate ± SEM” value ([1]; ACEA100108 .2uM) was 1.59 ± 0.1 um/min and the “Mean duration of attenuation ± SEM” value ([1]; ACEA100108 .2uM) was 3.74 ± 0.7. For the same compound, the “Shortening Rate ± SEM” value ([1]; ACEA100108 .2uM) was 35.8 ± 4.3 um/min, the “Duration of Event” value ([1]; growth events, ACEA100108 .2uM) was 2.04 ± 0.3 min and the “Length of Excursion” value ([1]; growth events, ACEA100108 .2uM) was 3.24 ± 0.3 um. The “Effect on duration of growth events” value ([1]; plus ends, steady state) was “increased the duration of growth events”, the “Effect on length of growth events” value ([1]; plus ends, steady state) was “increased the duration of growth events and the average length of growth events” and the “Effect on length of shortening events” value ([1]; plus ends, steady state) was “strong effect upon the length of shortening events”. For the same compound, the “Duration of Event” value [1, 5] was 0.11 ± 0.02 min, the “Length of Excursion” value [1, 5] was 3.79 ± 0.3 um and the Microtubule network appearance ([2]; 4 hours exposure) was “the microtubule network is markedly altered at all concentrations tested”. The Microtubule network appearance ([2]; 24 hours, 1 uM and 3 uM) was “appear relatively normal”, the Microtubule network appearance ([2]; 24 hours, 9 uM) was “the microtubules appear short and the network is abnormal” and the “Animal No. beginning/end (survival)” value (mouse Lewis lung cancer; 6.25 mg/kg/d iv x7 qd) was 10/10. For the same compound, the “Animal weight (g) beginning” value (mouse Lewis lung cancer; 6.25 mg/kg/d iv x7 qd) was 20.3 g, the “Animal weight (g) end” value (mouse Lewis lung cancer; 6.25 mg/kg/d iv x7 qd) was 24.4 g and the “Tumor weight” value (mouse Lewis lung cancer; 6.25 mg/kg/d iv x7 qd) was 1.78 ± 0.24 g. The “Inhibition rate (%)” value (mouse Lewis lung cancer; 6.25 mg/kg/d iv x7 qd) was 34.32%, the “Animal No. beginning/end (survival)” value (mouse Lewis lung cancer; 25 mg/kg/d iv x7 qd) was 10/10 and the “Animal weight (g) beginning” value (mouse Lewis lung cancer; 25 mg/kg/d iv x7 qd) was 20.1 g. The “Animal weight (g) end” value (mouse Lewis lung cancer; 25 mg/kg/d iv x7 qd) was 24.2 g, the “Tumor weight” value (mouse Lewis lung cancer; 25 mg/kg/d iv x7 qd) was 1.21 ± 0.22 g and the “Inhibition rate (%)” value (mouse Lewis lung cancer; 25 mg/kg/d iv x7 qd) was 55.35%. For the same compound, the “Animal No. beginning/end (survival)” value (mouse Lewis lung cancer; 100 mg/kg/d iv x7 qd) was 10/8, the “Animal weight (g) beginning” value (mouse Lewis lung cancer; 100 mg/kg/d iv x7 qd) was 20.6 g and the “Animal weight (g) end” value (mouse Lewis lung cancer; 100 mg/kg/d iv x7 qd) was 23.4 g. For the same compound, the “Tumor weight” value (mouse Lewis lung cancer; 100 mg/kg/d iv x7 qd (text: administered only 5 times because of toxicity)) was 1.08 ± 0.17 g, the “Inhibition rate (%)” value (mouse Lewis lung cancer; 100 mg/kg/d iv x7 qd (text: only 5 times because of toxicity)) was 60.15% and the “Effect on extent of microtubule assembly” value ([3]; 27 uM) was “marked inhibitory effect”. The “Effect on microtubule assembly” value ([3]; lower dosages) was “minimal effects upon microtubule assembly”, the “Mice with palpable tumor / total mice” value [4, 6] was 4/6†† and the “Tumor volume (cm^3)” value [4, 6] was 0.01 cm^3. The “Tumor volume (cm^3)” value ([4]; 8 mg/kg iv x7 qd, 14 d) was 0.068 ± 0.02 cm^3, the “Tumor volume (cm^3)” value ([4]; 8 mg/kg iv x7 qd, 21 d) was 0.214 ± 0.04 cm^3 and the “Tumor volume (cm^3)” value ([4]; 8 mg/kg iv x7 qd, 24 d (end)) was 0.985 cm^3 and 0.985 ± 0.4 cm^3. The “TV inhibition rate % T/C” value ([4]; 8 mg/kg/d iv x7 qd) was 56.15%, the “Tumor weight” value ([4]; 8 mg/kg/d iv x7 qd) was 1.18 ± 0.23 g and the “Body weight of mice” value ([4]; 8 mg/kg/d iv x7 qd, 0 day (beginning)) was 18.0 g and 18 ± 0.6 g. For the same compound, the “Body weight of mice” value ([4]; 8 mg/kg/d iv x7 qd, 7 day) was 19.5 ± 1 g, the “Body weight of mice” value ([4]; 8 mg/kg/d iv x7 qd, 14 d) was 21.5 ± 1 g and the “Body weight of mice” value ([4]; 8 mg/kg/d iv x7 qd, 21 d) was 22.3 ± 1.6 g. The “Body weight of mice” value ([4]; 8 mg/kg/d iv x7 qd, 24 d (end)) was 23.0 g and 23 ± 1.5 g, the “tumor inhibition rate %” value ([4]; 8 mg/kg/d iv x7 qd) was 31.40% and the “Mice with palpable tumor / total mice” value [4, 7] was 5/6††. For the same compound, the “Tumor volume (cm^3)” value [4, 7] was 0.01 cm^3, the “Tumor volume (cm^3)” value ([4]; 20 mg/kg iv x7 qd, 14 d) was 0.049 ± 0.03 cm^3 and the “Tumor volume (cm^3)” value ([4]; 20 mg/kg iv x7 qd, 21 d) was 0.167 ± 0.03 cm^3. For the same compound, the “Tumor volume (cm^3)” value ([4]; 20 mg/kg iv x7 qd, 24 d (end)) was 0.488 cm^3 and 0.488 ± 0.07 cm^3, the “TV inhibition rate % T/C” value ([4]; 20 mg/kg/d iv x7 qd) was 27.82% and the “Tumor weight” value ([4]; 20 mg/kg/d iv x7 qd) was 0.755 ± 0.09 g. For the same compound, the “Body weight of mice” value ([4]; 20 mg/kg/d iv x7 qd, 0 day (beginning)) was 17.6 g and 17.6 ± 0.8 g, the “Body weight of mice” value ([4]; 20 mg/kg/d iv x7 qd, 7 day) was 19.7 ± 1 g and the “Body weight of mice” value ([4]; 20 mg/kg/d iv x7 qd, 14 d) was 20.8 ± 1 g. The “Body weight of mice” value ([4]; 20 mg/kg/d iv x7 qd, 21 d) was 22.7 ± 1.2 g, the “Body weight of mice” value ([4]; 20 mg/kg/d iv x7 qd, 24 d (end)) was 23.0 g and 23 ± 1.2 g and the “tumor inhibition rate %” value ([4]; 20 mg/kg/d iv x7 qd) was 56.10%. The “Mice with palpable tumor / total mice” value [4, 8] was 3/6††, the “Tumor volume (cm^3)” value [4, 8] was 0.01 cm^3 and the “Tumor volume (cm^3)” value ([4]; 50 mg/kg iv x7 qd, 14 d) was 0.023 ± 0.02 cm^3. The “Tumor volume (cm^3)” value ([4]; 50 mg/kg iv x7 qd, 21 d) was 0.112 ± 0.03 cm^3, the “Tumor volume (cm^3)” value ([4]; 50 mg/kg iv x7 qd, 24 d (end)) was 0.310 cm^3 and 0.31 ± 0.05 cm^3 and the “TV inhibition rate % T/C” value ([4]; 50 mg/kg/d iv x7 qd) was 17.67%. The “Tumor weight” value ([4]; 50 mg/kg/d iv x7 qd) was 0.617 ± 0.09 g, the “Body weight of mice” value ([4]; 50 mg/kg/d iv x7 qd, 0 day (beginning)) was 18.1 g and 18.1 ± 1.1 g and the “Body weight of mice” value ([4]; 50 mg/kg/d iv x7 qd, 7 day) was 18.8 ± 0.8 g. For the same compound, the “Body weight of mice” value ([4]; 50 mg/kg/d iv x7 qd, 14 d) was 20.5 ± 1 g, the “Body weight of mice” value ([4]; 50 mg/kg/d iv x7 qd, 21 d) was 22.2 ± 1.2 g and the “Body weight of mice” value ([4]; 50 mg/kg/d iv x7 qd, 24 d (end)) was 23.0 g and 23 ± 1.2 g. For the same compound, the “tumor inhibition rate %” value ([4]; 50 mg/kg/d iv x7 qd) was 64.13%.
